How the values were obtained:
[1] = target: FGFR2 (Homo sapiens (Human), UniProt P21802); experiment: FGFR2 Biochemical Caliper Assay
Experimental: Compounds of the present invention were also tested in a FGFR2 Biochemical Caliper Assay. Compounds were prepared in 10 mM DMSO solution and serially diluted into 11 concentrations by 3-fold dilution. […] 5 uL of ATP solution (100 uM) was added to start the reaction and the plate was incubated for 90 minutes, then 70 uL of stopping buffer (0.5M EDTA) was added to terminate the reaction. Each well was analyzed using EZ reader.

[2] = test system: SNU16 cells; experiment: SNU16 Cancer Cell Line Proliferation Assay; assay type: cell-based; conditions: Homo sapiens; SNU-16 cells
Experimental: Compounds of the present invention were also tested in a SNU16 Cancer Cell Line Proliferation Assay, Test compounds were prepared in a 10 mM DMSO stock solution. 45 uL of stock solution was transferred to a 384 well plate, and a 3-fold 11-point dolution was performed. SNU16 cells in a 384 well cell culture plate were seeded and incubated at 37 degrees for 24 hours. 40 nL of each concentration of compound was transferred from the compound plate to a corresponding well in the cell culture plate by Echo550 liquid handler. The plates were incubated for 96 hours, then equilibrated to room temperature for 15 minutes. 20 uL of CellTiter Glo reagent is added into each well, then the plate was shaken gently for 30 minutes at room temperature. Chemiluminescence was then read on an EnVision reader.

FGFR2, sequence (P21802 22-821): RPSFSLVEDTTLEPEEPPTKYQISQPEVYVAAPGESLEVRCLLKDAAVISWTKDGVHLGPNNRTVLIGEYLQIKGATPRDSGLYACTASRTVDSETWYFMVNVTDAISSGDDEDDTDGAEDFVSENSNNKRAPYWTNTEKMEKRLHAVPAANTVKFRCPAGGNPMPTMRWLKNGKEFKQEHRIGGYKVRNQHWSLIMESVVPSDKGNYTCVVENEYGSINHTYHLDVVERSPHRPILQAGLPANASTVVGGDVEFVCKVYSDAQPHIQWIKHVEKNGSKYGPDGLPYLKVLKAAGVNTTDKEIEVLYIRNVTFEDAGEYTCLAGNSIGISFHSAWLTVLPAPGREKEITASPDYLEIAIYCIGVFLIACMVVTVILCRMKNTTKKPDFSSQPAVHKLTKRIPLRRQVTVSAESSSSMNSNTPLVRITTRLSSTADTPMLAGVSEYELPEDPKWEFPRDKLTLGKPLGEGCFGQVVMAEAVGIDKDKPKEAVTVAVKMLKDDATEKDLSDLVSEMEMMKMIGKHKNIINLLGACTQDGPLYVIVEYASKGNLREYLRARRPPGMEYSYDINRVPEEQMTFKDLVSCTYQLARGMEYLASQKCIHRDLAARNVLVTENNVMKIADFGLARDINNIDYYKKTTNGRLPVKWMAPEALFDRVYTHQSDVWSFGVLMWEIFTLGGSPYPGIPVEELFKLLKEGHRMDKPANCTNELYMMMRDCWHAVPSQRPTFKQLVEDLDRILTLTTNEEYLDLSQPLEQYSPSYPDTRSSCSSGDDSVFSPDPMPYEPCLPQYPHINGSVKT

Structure (SMILES)	IC50 [1] [nM]	IC50 [2] [nM]
C=C(C)C(=O)Nc1ccc(-c2c(-c3ccc4c(c3)CCCN4C)c3c(N)ncnc3n2C)cc1 [Example 207]	250 to 1000	250 to 1000
C=C(C)C(=O)Nc1c(F)cc(-c2c(-c3ccc(C(=O)N4CCCC4)cc3)c3c(N)ncnc3n2C)cc1F [Example 210]	1000 to 100000	250 to 1000
C=CC(=O)Nc1ccc(-c2c(-c3ccc4c(c3)CCCN4C)c3c(N)ncnc3n2C)cc1 [Example 211]	< 100	≤ 100
C=CC(=O)Nc1ccc(-c2c(-c3ccc(C(=O)N4CCCC4)cc3)c3c(N)ncnc3n2C)c(F)c1 [Example 213]	< 100	≤ 100
C=C(C)C(=O)Nc1ccc(-c2c(-c3ccc(C(=O)N4CCCC4)cc3)c3c(N)ncnc3n2C)cc1F [Example 215]	250 to 1000	250 to 1000
C=CC(=O)Nc1ccc(-c2c(-c3ccc(ON4CCCC4)cc3)c3c(N)ncnc3n2C)c(C)c1 [Example 216]	< 100	≤ 100
C=CC(=O)Nc1ccc(-c2c(-c3ccc(C(=O)N4CCCC4)cc3)c3c(N)ncnc3n2C)cc1F [Example 217]	< 100	≤ 100
C=CC(=O)Nc1c(F)cc(-c2c(-c3ccc(C(=O)N4CCCC4)cc3)c3c(N)ncnc3n2C)cc1F [Example 219]	< 100	≤ 100
C=CC(=O)Nc1ccc(-c2c(-c3ccc(C(=O)N4CCCC4)cc3)c3c(N)ncnc3n2C)cc1C [Example 220]	< 100	≤ 100
C=C(C)C(=O)Nc1ccc(-c2c(-c3ccc(Cn4cccn4)cc3)c3c(N)ncnc3n2C)cc1 [Example 244]	1000 to 100000	250 to 1000
C=C(C)C(=O)Nc1ccc(-c2c(-c3ccc(C(=O)NCC(F)(F)F)cc3)c3c(N)ncnc3n2C)cc1 [Example 248]	< 100	≤ 100
C=C(C)C(=O)Nc1ccc(-c2c(-c3ccc(C(=O)Nc4ncccn4)cc3)c3c(N)ncnc3n2C)cc1 [Example 257]	250 to 1000	250 to 1000
C=CC(=O)Nc1ccc(-c2c(-c3ccc(Cn4nc(C)cc4C)cc3)c3c(N)ncnc3n2C)cc1 [Example 260]	< 100	≤ 100
C=C(C)C(=O)Nc1ccc(-c2c(-c3ccc(Cn4cc(C)cn4)cc3)c3c(N)ncnc3n2C)cc1 [Example 263]	1000 to 100000	250 to 1000
C=C(C)C(=O)Nc1ccc(-c2c(-c3ccc(Cn4nccc4C)cc3)c3c(N)ncnc3n2C)cc1 [Example 266]	1000 to 100000	250 to 1000
C=C(C)C(=O)Nc1ccc(-c2c(-c3ccc(Oc4ccn(C)n4)cc3)c3c(N)ncnc3n2C)cc1 [Example 267]	< 100	≤ 100
C=C(C)C(=O)Nc1ccc(-c2c(-c3ccc(C(=O)N(C)Cc4nc(C)no4)cc3)c3c(N)ncnc3n2C)cc1 [Example 270]	250 to 1000	250 to 1000
C=C(C)C(=O)Nc1ccc(-c2c(-c3ccc(Cn4ccc(C)n4)cc3)c3c(N)ncnc3n2C)cc1 [Example 274]	100 to 250	250 to 1000
C=CC(=O)Nc1ccc(-c2c(-c3ccc(Oc4ccn(C)n4)cc3)c3c(N)ncnc3n2C)cc1 [Example 276]	< 100	≤ 100
C=C(C)C(=O)Nc1ccc(-c2c(-c3ccc(C(=O)NCc4ncon4)cc3)c3c(N)ncnc3n2C)cc1 [Example 282]	100 to 250	250 to 1000
C=C(C)C(=O)Nc1ccc(-c2c(-c3ccc(C(=O)NCC(C)(C)O)cc3)c3c(N)ncnc3n2C)cc1 [Example 288]	< 100	250 to 1000
C=C(C)C(=O)Nc1ccc(-c2c(-c3ccc(C(=O)N(C)Cc4cnn(C)c4)cc3)c3c(N)ncnc3n2C)cc1 [Example 294]	1000 to 100000	250 to 1000
C=C(C)C(=O)Nc1ccc(-c2c(-c3ccc(C(=O)Nc4ncon4)cc3)c3c(N)ncnc3n2C)cc1 [Example 295]	1000 to 100000	250 to 1000
C=CC(=O)Nc1ccc(-c2c(C3=CCC(C(=O)N(C)C)CC3)c3c(N)ncnc3n2C)cc1 (centres unmarked) [Example 296]	< 100	≤ 100
C=CC(=O)Nc1ccc(-c2c(C3=CCC(C(=O)N4CCCC4)CC3)c3c(N)ncnc3n2C)cc1 (centres unmarked) [Example 297]	< 100	≤ 100
C=CC(=O)Nc1ccc(-c2c(C3=CCC(C(=O)NC4CCCC4)CC3)c3c(N)ncnc3n2C)cc1 (centres unmarked) [Example 298]	< 100	≤ 100

Further lines, results first:

IC50 [1] [nM]	IC50 [2] [nM]	Structure (SMILES)
< 100	≤ 100	C=C(C)C(=O)Nc1ccc(-c2c(-c3ccc(C(=O)NC4CCCC4)cc3)c3c(N)ncnc3n2C)cc1 [Example 212]
< 100	≤ 100	C=C(C)C(=O)Nc1ccc(-c2c(-c3ccc(OC4CCCC4)cc3)c3c(N)ncnc3n2C)cc1 [Example 223]
< 100	≤ 100	C=C(C)C(=O)Nc1ccc(-c2c(-c3ccc(NC(=O)C4CCCC4)cc3)c3c(N)ncnc3n2C)cc1 [Example 224]
100 to 250	100 to 250	C=C(C)C(=O)Nc1ccc(-c2c(-c3ccc(C(=O)N(C)C4CCC4)cc3)c3c(N)ncnc3n2C)cc1 [Example 227]
< 100	≤ 100	C=C(C)C(=O)Nc1ccc(-c2c(-c3ccc(C(=O)N4CCC5CC5C4)cc3)c3c(N)ncnc3n2C)cc1 (centres unmarked) [Example 228]
< 100	≤ 100	C=C(C)C(=O)Nc1ccc(-c2c(-c3ccc(C(=O)N4CCC5CC54)cc3)c3c(N)ncnc3n2C)cc1 (centres unmarked) [Example 229]
< 100	≤ 100	C=C(C)C(=O)Nc1ccc(-c2c(-c3ccc(C(=O)N4CCCCCC4)cc3)c3c(N)ncnc3n2C)cc1 [Example 230]
100 to 250	100 to 250	C=C(C)C(=O)Nc1ccc(-c2c(-c3ccc(C(=O)N(C)C4CCCC4)cc3)c3c(N)ncnc3n2C)cc1 [Example 233]
< 100	≤ 100	C=C(C)C(=O)Nc1ccc(-c2c(-c3ccc(C(=O)N4CCC5(CC5)C4)cc3)c3c(N)ncnc3n2C)cc1 [Example 234]
100 to 250	100 to 250	C=C(C)C(=O)Nc1ccc(-c2c(-c3ccc(C(=O)N4CCCCC4=O)cc3)c3c(N)ncnc3n2C)cc1 [Example 236]
100 to 250	100 to 250	C=C(C)C(=O)Nc1ccc(-c2c(-c3ccc(C(=O)N4CC5CC5C4)cc3)c3c(N)ncnc3n2C)cc1 (centres unmarked) [Example 237]
250 to 1000	250 to 1000	C=C(C)C(=O)Nc1ccc(-c2c(-c3ccc(C(=O)N4CC5CCC4CO5)cc3)c3c(N)ncnc3n2C)cc1 (centres unmarked) [Example 238]
< 100	≤ 100	C=C(C)C(=O)Nc1ccc(-c2c(-c3ccc(C(=O)N4CCCC5CC54)cc3)c3c(N)ncnc3n2C)cc1 (centres unmarked) [Example 239]
1000 to 100000	250 to 1000	C=C(C)C(=O)Nc1ccc(-c2c(-c3ccc(C(=O)N4CC5(CCCC5)C4)cc3)c3c(N)ncnc3n2C)cc1 [Example 241]
250 to 1000	250 to 1000	C=C(C)C(=O)Nc1ccc(-c2c(-c3ccc(C(=O)N4CCC5(CCC5)C4)cc3)c3c(N)ncnc3n2C)cc1 [Example 245]
250 to 1000	100 to 250	C=C(C)C(=O)Nc1ccc(-c2c(-c3ccc(C(=O)N4CC5CCCCC5C4)cc3)c3c(N)ncnc3n2C)cc1 (centres unmarked) [Example 246]
250 to 1000	250 to 1000	C=C(C)C(=O)Nc1ccc(-c2c(-c3ccc(C(=O)N4CC5COCC5C4)cc3)c3c(N)ncnc3n2C)cc1 (centres unmarked) [Example 249]
< 100	≤ 100	C=C(C)C(=O)Nc1ccc(-c2c(-c3ccc(C(=O)N4CCCC(C)C4)cc3)c3c(N)ncnc3n2C)cc1 (centres unmarked) [Example 255]
< 100	≤ 100	C=C(C)C(=O)Nc1ccc(-c2c(-c3ccc(C(=O)N4CC5CCC4C5)cc3)c3c(N)ncnc3n2C)cc1 (centres unmarked) [Example 258]
< 100	≤ 100	C=C(C)C(=O)Nc1ccc(-c2c(-c3ccc(C(=O)N4CC5CCC4CC5)cc3)c3c(N)ncnc3n2C)cc1 [Example 262]
100 to 250	≤ 100	C=C(C)C(=O)Nc1ccc(-c2c(-c3ccc(C(=O)N4CCCC5(CC5)C4)cc3)c3c(N)ncnc3n2C)cc1 [Example 264]
< 100	≤ 100	C=C(C)C(=O)Nc1ccc(-c2c(-c3ccc(C(=O)NC4CCC4)cc3)c3c(N)ncnc3n2C)cc1 [Example 265]
< 100	≤ 100	C=C(C)C(=O)Nc1ccc(-c2c(-c3ccc(C(=O)N4CC5CC4C5)cc3)c3c(N)ncnc3n2C)cc1 [Example 272]
< 100	≤ 100	C=C(C)C(=O)Nc1ccc(-c2c(-c3ccc(C(=O)NC4CCOC4)cc3)c3c(N)ncnc3n2C)cc1 (centres unmarked) [Example 283]
250 to 1000	250 to 1000	C=C(C)C(=O)Nc1ccc(-c2c(-c3ccc(C(=O)NC4COC4)cc3)c3c(N)ncnc3n2C)cc1 [Example 289]
< 100	100 to 250	C=C(C)C(=O)Nc1ccc(-c2c(-c3ccc(C(=O)N[C@@H](CO)C4CC4)cc3)c3c(N)ncnc3n2C)cc1 [Example 290]
< 100	≤ 100	C=C(C)C(=O)Nc1ccc(-c2c(-c3ccc(C(=O)N4CC5CCC5C4)cc3)c3c(N)ncnc3n2C)cc1 (centres unmarked) [Example 291]
< 100	≤ 100	C=C(C)C(=O)Nc1ccc(-c2c(-c3ccc(C(=O)N4CCCC[C@@H]4C)cc3)c3c(N)ncnc3n2C)cc1 [Example 292]
< 100	≤ 100	C=C(C)C(=O)Nc1ccc(-c2c(-c3ccc(C(=O)N4CCCC[C@H]4C)cc3)c3c(N)ncnc3n2C)cc1 [Example 293]

Source: US11780845B2 (Relay Therapeutics, Inc., priority 2019, dated 2023)
